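Following 48 hours of exposure in 96-well plates, responses at five concentrations were used to interpolate endpoints linearly. GI50 is the concentration that inhibits growth by half. TGI is the concentration that stops growth completely.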
Legend:
Experiment in all cases: NCI tumour cell line growth inhibition, 48 h
786-0 renal = tested on: 786-0 renal
A498 renal = tested on: A498 renal
A549 NSCLC = tested on: A549 NSCLC
ACHN renal = tested on: ACHN renal
BT-549 breast = tested on: BT-549 breast
CAKI-1 renal = tested on: CAKI-1 renal
CCRF-CEM leukemia = tested on: CCRF-CEM leukemia
COLO 205 colon = tested on: COLO 205 colon
DU-145 prostate = tested on: DU-145 prostate
EKVX NSCLC = tested on: EKVX NSCLC
HCC-2998 colon = tested on: HCC-2998 colon
HCT-116 colon = tested on: HCT-116 colon
HCT-15 colon = tested on: HCT-15 colon
HL-60(TB) leukemia = tested on: HL-60(TB) leukemia
HOP-62 NSCLC = tested on: HOP-62 NSCLC
HOP-92 NSCLC = tested on: HOP-92 NSCLC
HS 578T breast = tested on: HS 578T breast
HT29 colon = tested on: HT29 colon
IGROV1 ovarian = tested on: IGROV1 ovarian
K-562 leukemia = tested on: K-562 leukemia
KM12 colon = tested on: KM12 colon
LOX IMVI melanoma = tested on: LOX IMVI melanoma
M14 melanoma = tested on: M14 melanoma
MALME-3M melanoma = tested on: MALME-3M melanoma
MCF7 breast = tested on: MCF7 breast
MDA-MB-231 breast = tested on: MDA-MB-231 breast
MDA-MB-435 = tested on: MDA-MB-435
MOLT-4 leukemia = tested on: MOLT-4 leukemia
NCI-H226 lung = tested on: NCI-H226 lung
NCI-H23 lung = tested on: NCI-H23 lung
NCI-H460 lung = tested on: NCI-H460 lung
NCI-H522 lung = tested on: NCI-H522 lung
NCI/ADR-RES ovarian = tested on: NCI/ADR-RES ovarian
OVCAR-3 ovarian = tested on: OVCAR-3 ovarian
OVCAR-4 ovarian = tested on: OVCAR-4 ovarian
OVCAR-5 ovarian = tested on: OVCAR-5 ovarian
OVCAR-8 ovarian = tested on: OVCAR-8 ovarian
PC-3 prostate = tested on: PC-3 prostate
RPMI-8226 leukemia = tested on: RPMI-8226 leukemia
RXF 393 renal = tested on: RXF 393 renal
SF-268 CNS = tested on: SF-268 CNS
SF-295 CNS = tested on: SF-295 CNS
SF-539 CNS = tested on: SF-539 CNS
SK-MEL-2 melanoma = tested on: SK-MEL-2 melanoma
SK-MEL-28 melanoma = tested on: SK-MEL-28 melanoma
SK-MEL-5 melanoma = tested on: SK-MEL-5 melanoma
SK-OV-3 ovarian = tested on: SK-OV-3 ovarian
SN12C renal = tested on: SN12C renal
SNB-19 CNS = tested on: SNB-19 CNS
SNB-75 CNS = tested on: SNB-75 CNS
SR leukemia = tested on: SR leukemia
SW-620 colon = tested on: SW-620 colon
T-47D breast = tested on: T-47D breast
TK-10 renal = tested on: TK-10 renal
U251 CNS = tested on: U251 CNS
UACC-257 melanoma = tested on: UACC-257 melanoma
UACC-62 melanoma = tested on: UACC-62 melanoma
UO-31 renal = tested on: UO-31 renal

COc1ccc([C@H]2[C@H](O)C(=O)N2c2cc(OC)c(OC)c(OC)c2)cc1Cl
GI50 (786-0 renal): < 15.5 nM | TGI (786-0 renal): > 100000 nM | GI50 (A498 renal): > 59800 nM | TGI (A498 renal): > 100000 nM | GI50 (A549 NSCLC): < 14.1 nM | TGI (A549 NSCLC): > 100000 nM | GI50 (ACHN renal): < 10 nM | TGI (ACHN renal): > 100000 nM | GI50 (BT-549 breast): < 12.5 nM | TGI (BT-549 breast): 718 nM | GI50 (CAKI-1 renal): < 10 nM | TGI (CAKI-1 renal): > 43100 nM | GI50 (CCRF-CEM leukemia): < 10 nM | TGI (CCRF-CEM leukemia): > 100000 nM | GI50 (COLO 205 colon): < 14.9 nM | TGI (COLO 205 colon): < 22.5 nM | GI50 (DU-145 prostate): < 12.8 nM | TGI (DU-145 prostate): > 100000 nM | TGI (EKVX NSCLC): > 100000 nM | GI50 (HCC-2998 colon): < 18.8 nM | GI50 (HCT-116 colon): < 10 nM | TGI (HCT-116 colon): > 62600 nM | GI50 (HCT-15 colon): < 11.8 nM | TGI (HCT-15 colon): > 100000 nM | GI50 (HL-60(TB) leukemia): < 10 nM | GI50 (HOP-62 NSCLC): < 11.4 nM | TGI (HOP-62 NSCLC): > 100000 nM | GI50 (HOP-92 NSCLC): 828 nM | TGI (HOP-92 NSCLC): > 100000 nM | GI50 (HS 578T breast): < 15.8 nM | TGI (HS 578T breast): > 100000 nM | GI50 (HT29 colon): < 10 nM | GI50 (IGROV1 ovarian): < 11.1 nM | TGI (IGROV1 ovarian): > 100000 nM | GI50 (K-562 leukemia): < 10 nM | TGI (K-562 leukemia): > 100000 nM | GI50 (KM12 colon): < 11.3 nM | TGI (KM12 colon): > 100000 nM | GI50 (LOX IMVI melanoma): < 10 nM | TGI (LOX IMVI melanoma): > 100000 nM | GI50 (M14 melanoma): < 12.8 nM | TGI (M14 melanoma): > 100000 nM | GI50 (MALME-3M melanoma): < 14.9 nM | TGI (MALME-3M melanoma): > 100000 nM | GI50 (MCF7 breast): < 10 nM | TGI (MCF7 breast): > 100000 nM | GI50 (MDA-MB-231 breast): < 16.1 nM | TGI (MDA-MB-231 breast): > 100000 nM | GI50 (MDA-MB-435): < 10 nM | TGI (MDA-MB-435): < 10.4 nM | GI50 (MOLT-4 leukemia): < 17 nM | TGI (MOLT-4 leukemia): > 100000 nM | GI50 (NCI-H226 lung): < 10 nM | TGI (NCI-H226 lung): 50500 nM | GI50 (NCI-H23 lung): 10.6 nM | TGI (NCI-H23 lung): > 100000 nM | GI50 (NCI-H460 lung): < 12.7 nM | GI50 (NCI-H522 lung): < 10 nM | TGI (NCI-H522 lung): < 10.5 nM | GI50 (NCI/ADR-RES ovarian): < 13.6 nM | GI50 (OVCAR-3 ovarian): < 10 nM | GI50 (OVCAR-4 ovarian): 442 nM | TGI (OVCAR-4 ovarian): > 100000 nM | GI50 (OVCAR-5 ovarian): < 12 nM | TGI (OVCAR-5 ovarian): > 100000 nM | GI50 (OVCAR-8 ovarian): < 14.1 nM | GI50 (PC-3 prostate): < 16.8 nM | TGI (PC-3 prostate): > 100000 nM | GI50 (RPMI-8226 leukemia): < 11.2 nM | TGI (RPMI-8226 leukemia): > 35400 nM | GI50 (RXF 393 renal): < 10 nM | TGI (RXF 393 renal): > 100000 nM | GI50 (SF-268 CNS): < 24.1 nM | TGI (SF-268 CNS): > 100000 nM | GI50 (SF-295 CNS): < 10 nM | TGI (SF-295 CNS): > 100000 nM | GI50 (SF-539 CNS): < 10 nM | GI50 (SK-MEL-2 melanoma): 31.9 nM | TGI (SK-MEL-2 melanoma): > 100000 nM | GI50 (SK-MEL-28 melanoma): < 43.4 nM | TGI (SK-MEL-28 melanoma): > 100000 nM | GI50 (SK-MEL-5 melanoma): < 10 nM | TGI (SK-MEL-5 melanoma): 36.5 nM | GI50 (SK-OV-3 ovarian): < 18.7 nM | TGI (SK-OV-3 ovarian): > 100000 nM | GI50 (SN12C renal): < 10 nM | TGI (SN12C renal): > 100000 nM | GI50 (SNB-19 CNS): < 24.1 nM | TGI (SNB-19 CNS): > 100000 nM | GI50 (SNB-75 CNS): < 10 nM | TGI (SNB-75 CNS): > 100000 nM | GI50 (SR leukemia): < 10 nM | TGI (SR leukemia): > 87200 nM | GI50 (SW-620 colon): < 10 nM | TGI (SW-620 colon): > 100000 nM | GI50 (T-47D breast): > 38400 nM | TGI (T-47D breast): > 100000 nM | GI50 (TK-10 renal): > 100000 nM | TGI (TK-10 renal): > 100000 nM | GI50 (U251 CNS): 18.6 nM | TGI (U251 CNS): > 100000 nM | TGI (UACC-257 melanoma): > 100000 nM | GI50 (UACC-62 melanoma): < 10 nM | TGI (UACC-62 melanoma): > 100000 nM | GI50 (UO-31 renal): < 19.2 nM | TGI (UO-31 renal): > 100000 nM
